The source of these data is publication PMC6438731, “Extrasynaptic δ‐GABAA receptors are high‐affinity muscimol receptors” (Journal of Neurochemistry, 2019).

Each structure is given as a SMILES string. Where two headings read alike, the source gives them in different places.

Experiment [1] has as its target α4β3δ receptors. The arrangement: method as in Stórustovu and Ebert 2006. To be noted: recombinantly expressed α4β3δ receptors, ref Stórustovu and Ebert 2006; read-out: muscimol EC50; cited from earlier work.
Experiment [2] concerns the target α4β3δ receptors. The arrangement: method as in Mortensen et al. 2010. To be noted: recombinantly expressed α4β3δ receptors, ref Mortensen et al. 2010; read-out: muscimol EC50; cited from earlier work.
Another experiment has as its system α1βγ2 GABAARs. Also noted: method as in Karim et al. 2013. The following applies: ref Karim et al. 2013; cited from earlier work.
Experiment [3] relates to different GABAAR subtypes. Briefly: Affinity of muscimol compared with GABA across GABAAR subtypes. The following applies: across the board for different GABAAR subtypes.
Experiment [4] addresses T1, recombinant α4β3 receptors (Homo sapiens, UniProt P28472+P48169).
T1 construct: expressed in transfected cells; host or cells: Xenopus laevis oocytes injected with cRNA
The experiment is described as follows: Muscimol currents, two electrode voltage clamp in Xenopus oocytes, α4β3. It is filed as cell-based. The following applies: α4β3‐injected oocytes, without δ. An excerpt:
(§1) Human α4, α6, β3, and δ cDNA clones for oocyte expression were made by PCR amplification of the coding region (NcoI site introduced with the amplifying 5′ oligonucleotide at the ATG initiation codon) and a HindIII (or SpeI) containing oligo) and cloning it into a NcoI‐HindIII (or SpeI) cut vector backbone derived from pEGFP‐N1 (Addgene 6085‐1). The entire transcribed region was confirmed by sequencing to ensure that protein sequences conform to consensus sequences found in the RefSeq database (https://www.ncbi.nlm.gov/RefSeq). Plasmids were linearized with NotI (New England Biolabs) and cRNA was transcribed, using T7 RNA polymerase (Ambion, mMESSAGE mMACHINE T7 Transcription Kit, Ambion Austin TX, USA, Cat. No. 1344). Xenopus laevis (Nasco, product number LM00531) oocytes were prepared from oocyte lobes shared by Dr. Olcese (UCLA, Anesthesiology). The oocytes were injected with 2 ng of each α6 and β3 subunit cRNA alone or together with 10 ng δ cRNA. Currents were measured 5–10 days after injection by two electrode voltage clamp using an Axoclamp 2B amplifier and pCLAMP software. Drug solutions were applied in ND96 (in mM 96 NaCl, 2 KCl, 1.8 CaCl2, 1 MgCl2, 5 HEPES pH 7.4) by gravity perfusion with bath exchange time of about 2 s. Muscimol was prepared as an aqueous 100 mM stock solution.

The next experiment deals with α6β3δ receptors. The arrangement: method as in Stórustovu and Ebert 2006. To be noted: recombinantly expressed α6β3δ receptors, ref Stórustovu and Ebert 2006; read-out: muscimol EC50; cited from earlier work.
In experiment [5] the target is T2, recombinant α4β3δ receptors (Homo sapiens, UniProt O14764+P28472+P48169).
T2 construct: expressed in transfected cells; host or cells: Xenopus laevis oocytes injected with cRNA
T2 sequence (P48169 36-554): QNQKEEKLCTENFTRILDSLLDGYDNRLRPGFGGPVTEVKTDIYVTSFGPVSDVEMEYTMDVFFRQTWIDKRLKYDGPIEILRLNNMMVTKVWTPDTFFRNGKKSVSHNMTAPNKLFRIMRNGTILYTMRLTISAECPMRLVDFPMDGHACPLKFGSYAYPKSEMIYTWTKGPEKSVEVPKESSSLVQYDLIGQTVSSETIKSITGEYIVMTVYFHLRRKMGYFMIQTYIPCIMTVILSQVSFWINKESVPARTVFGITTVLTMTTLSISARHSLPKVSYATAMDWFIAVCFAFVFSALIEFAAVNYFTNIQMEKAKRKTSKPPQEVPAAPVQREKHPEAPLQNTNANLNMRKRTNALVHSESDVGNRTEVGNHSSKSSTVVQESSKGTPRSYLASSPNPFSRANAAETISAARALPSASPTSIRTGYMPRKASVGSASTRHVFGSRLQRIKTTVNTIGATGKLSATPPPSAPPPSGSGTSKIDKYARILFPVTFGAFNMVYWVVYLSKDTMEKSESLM
T2 sequence (P28472 26-473): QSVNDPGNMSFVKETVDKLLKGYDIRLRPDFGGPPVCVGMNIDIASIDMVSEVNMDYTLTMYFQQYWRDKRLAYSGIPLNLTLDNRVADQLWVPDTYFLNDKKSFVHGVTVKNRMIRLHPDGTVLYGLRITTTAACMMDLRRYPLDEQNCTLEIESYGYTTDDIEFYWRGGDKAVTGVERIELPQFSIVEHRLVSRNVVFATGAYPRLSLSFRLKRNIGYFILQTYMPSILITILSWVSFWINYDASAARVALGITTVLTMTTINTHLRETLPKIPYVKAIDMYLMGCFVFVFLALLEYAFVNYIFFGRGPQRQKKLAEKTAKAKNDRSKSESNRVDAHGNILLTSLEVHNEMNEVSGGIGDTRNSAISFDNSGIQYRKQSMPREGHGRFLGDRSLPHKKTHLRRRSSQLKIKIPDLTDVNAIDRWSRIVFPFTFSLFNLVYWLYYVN
T2 sequence (O14764 25-452): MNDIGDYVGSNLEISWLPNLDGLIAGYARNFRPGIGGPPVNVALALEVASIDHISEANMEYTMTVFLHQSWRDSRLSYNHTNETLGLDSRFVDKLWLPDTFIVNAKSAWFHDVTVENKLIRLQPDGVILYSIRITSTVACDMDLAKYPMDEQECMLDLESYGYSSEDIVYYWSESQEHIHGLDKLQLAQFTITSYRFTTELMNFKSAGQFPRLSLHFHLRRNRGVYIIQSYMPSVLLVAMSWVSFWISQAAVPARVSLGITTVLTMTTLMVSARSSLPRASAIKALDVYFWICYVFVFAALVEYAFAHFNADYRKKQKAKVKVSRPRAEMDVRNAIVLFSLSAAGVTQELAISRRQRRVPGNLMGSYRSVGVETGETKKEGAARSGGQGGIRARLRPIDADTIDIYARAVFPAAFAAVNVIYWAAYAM
Briefly: Muscimol currents, two electrode voltage clamp in Xenopus oocytes, α4β3δ. It is filed as cell-based.
Text: as §1

T1 sequence (P48169 36-554): as the sequence (P48169 36-554) above
T1 sequence (P28472 26-473): as the sequence (P28472 26-473) above

Consider `NCc1cc(=O)[nH]o1` [muscimol], for which the EC50 (in general, the concentration that produces a half-maximal response) at α4β3δ receptors [1] is 2280 nM; at α4β3δ receptors [2], 200 nM; with α1βγ2 GABAARs, roughly 1000 nM; on α6β3δ receptors it was 160 nM; in experiment [5] (α4β3δ in Xenopus oocytes, estimated/approximate, read-out: EC50 of the high‐muscimol affinity (slowly deactivating) current component) it was 1 to 2 nM. In experiment [3], the “higher affinity than GABA” value is 100–1000 times. Further, the figures for the “threshold muscimol concentration evoking currents” value in experiment [4] and in experiment [5] (α4β3δ‐injected oocytes) were “about 30 nM” and 0.1 nM, respectively.
